{
  "source": "patent US11291719B2",
  "about": "“Methods and compositions for modulating Akt3” (Augusta University Research Institute, Inc., priority 2016, dated 2022)",
  "key": {"Akt3 pS472": {"biological_target": "T1, Akt3 pS472 (Homo sapiens, UniProt Q9Y243)", "T1 construct": "expression of Akt1 pS473, Akt2 pS474, Akt3 pS472, and Akt pan 5473,474,472 in A2780 cells; endogenous in cells; host or cells: A2780 human ovarian carcinoma cells", "T1 sequence (Q9Y243 whole entry)": "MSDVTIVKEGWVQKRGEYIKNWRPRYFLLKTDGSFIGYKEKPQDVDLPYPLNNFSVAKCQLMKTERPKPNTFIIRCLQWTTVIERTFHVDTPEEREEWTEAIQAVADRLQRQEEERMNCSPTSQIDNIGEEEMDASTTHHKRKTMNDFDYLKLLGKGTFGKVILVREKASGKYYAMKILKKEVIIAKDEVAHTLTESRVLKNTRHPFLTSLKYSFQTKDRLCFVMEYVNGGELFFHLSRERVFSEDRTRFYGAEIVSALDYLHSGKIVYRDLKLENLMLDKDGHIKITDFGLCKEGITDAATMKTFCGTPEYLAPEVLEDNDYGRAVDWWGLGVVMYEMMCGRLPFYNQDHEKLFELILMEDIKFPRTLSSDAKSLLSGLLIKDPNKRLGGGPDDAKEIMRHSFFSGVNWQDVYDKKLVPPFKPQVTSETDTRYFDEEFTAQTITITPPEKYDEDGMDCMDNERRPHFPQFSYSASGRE", "test": "Akt3 phosphorylation in A2780 cells", "assay_type": "cell-based", "conditions": "human ovarian carcinoma cells (A2780)", "text": "FIG. 10 is a bar graph showing the effect of mJJ64A on the expression of Akt1 pS473, Akt2 pS474, Akt3 pS472, and Akt pan 5473,474,472 in A2780 cells compared to control. The Y axis represents integrated density value."}, "human iTregs": {"system": "human iTregs", "test": "Induction and viability of human iTregs", "assay_type": "cell-based", "text": "FIG. 11A is a bar graph showing the percent of live human iTregs in cells treated with various concentrations of mJJ64A. The X-axis represents treatment group and the Y-axis represents percent of live cells. FIG. 11B is a bar graph showing the percent of FoxP3^+CD4^+ cells in human iTregs treated with various concentrations of mJJ64A. The X-axis represents treatment group and the Y-axis represents percent of FoxP3^+CD4^+ cells. FIG. 11C is a bar graph showing the percent of TGFβ^+ expressing cells in human iTregs treated with various concentrations of mJJ64A. The X-axis represents treatment group and the Y-axis represents percent of TGFβ^+ expressing cells."}, "FoxP3": {"system": "FoxP3", "test": "Western blot of FoxP3 in Tconv cells during iTreg induction", "assay_type": "cell-based", "conditions": "TGF-β induced", "text": "FIG. 12 is a western blot showing the expression of FoxP3, pAkt3, Akt3, pAkt1, and Akt1 in activated Tconv cells induced with TGF-β and treated with various concentrations of mJJ64A."}, "[1]": {"system": "non-Treg CD4 and CD8 T cells", "test": "Proliferation of non-Treg CD4 and CD8 T cells", "assay_type": "cell-based", "conditions": "data not shown"}, "TC-1 tumor": {"system": "TC-1 tumor", "test": "TC-1 tumor growth under mJJ64A", "assay_type": "in vivo, mouse", "conditions": "compared to untreated controls", "text": "FIG. 18A is an illustration showing the experimental method and treatment schematic for TC-1 tumor experiments. FIG. 18B is a line graph showing tumor volume (cm^3) over time (days) for untreated (▴) and mJJ64A treated (♦) TC1 tumor bearing mice."}, "[2]": {"system": "Tregs, CD8+ and FoxP3NEG CD4 T cells", "test": "T cell populations in tumors and spleens of TC-1 mice", "assay_type": "in vivo, mouse", "text": "FIG. 19A is a bar graph representing the number of CD8^+ cells per 10^6 live cells in tumors from untreated and mJJ64A treated mice. FIG. 19B is a bar graph representing the number of CD4^+ cells per 10^6 live cells in tumors from untreated and mJJ64A treated mice. FIG. 19C is a bar graph representing the number of FoxP3^+ cells per 10^6 CD4^+ cells in tumors from untreated and mJJ64A treated mice. FIG. 19D is a bar graph representing the number of CD8^+, FoxP3^NEG CD4^+, and Treg cells per 10^6 live cells in the spleen of untreated or mJJ64A treated tumor-bearing mice. FIG. 19E is a bar graph representing the number of CD8^+, FoxP3^NEG CD4^+, and Treg cells per 10^6 live cells in the spleen of untreated or mJJ64A treated tumor-free mice."}, "experimental colitis": {"system": "experimental colitis", "test": "Experimental colitis model", "assay_type": "in vivo, mouse", "conditions": "Rag-/- colitis mice", "text": "FIG. 20A is a schematic illustration of the experimental design of a colitis model. FIG. 20B is a line graph representing weight (g) over time (days post-injection) for control (●), iTreg (▪), mJJ64A+iTreg (▴), and mJJ64A (∘) treated colitis mice. FIG. 20C is a line graph representing normalized weight over time (days post-injection) for control (●), iTreg (▪), mJJ64A+iTreg (▴), and mJJ64A (∘) treated colitis mice. FIG. 20D is a line graph showing percent survival of untreated (●), iTreg (blue circle), mJJ64A+iTreg (▾), and mJJ64A (red circle) treated colitis mice. The X-axis represents time (days) and the Y-axis represents percent survival. FIG. 20E-20I are representative photos of untreated (FIG. 20E), iTreg treated (FIG. 20F), JJa treated iTreg (FIG. 20G), untreated (FIG. 20H), and mJJ64A treated (FIG. 20I) colitis mice. […] FIG. 21A is a photo showing representative colons from untreated (UT), iTreg, mJJ64A treated iTreg, mJJ64A, and wild-type (WT) mice. FIG. 21B is a bar graph representing length and weight of colons from normal, untreated (UT), iTreg, mJJ64A, and mJJ64A+iTreg mice. The X-axis represents the treatment group and the Y-axis represents colon weight/length (mg/mm). […]"}},
  "data": [
    {"molecule": "N#Cc1ccc2nccc(Nc3ccc(C(=O)Nc4ccc(Nc5ccncc5)cc4)cc3)c2c1", "note": "[Compound 2]", "values": [
      {"measurement": "phosphorylation of Akt3", "setting": "Akt3 pS472", "value": "significantly increases"},
      {"measurement": "induction of human iTregs", "setting": "human iTregs; percent FoxP3+CD4+ and TGFβ+ cells", "value": "induced"},
      {"measurement": "cell viability of human iTregs", "setting": "human iTregs; percent of live cells", "value": "did not affect"},
      {"measurement": "expression of FoxP3 in Tconv cells during iTreg induction", "setting": "FoxP3", "value": "increased"},
      {"measurement": "proliferation of non-Treg CD4 and CD8 T cells", "setting": "[1]", "value": "not"},
      {"measurement": "TC-1 tumor growth", "setting": "TC-1 tumor", "value": "significantly increased"},
      {"measurement": "number of Tregs in the tumors and spleens", "setting": "[2]; compared to untreated controls", "value": "increased"},
      {"measurement": "tumor-infiltration of CD8+ and FoxP3NEG CD4 T cells", "setting": "[2]; mouse, in vivo", "value": "not affected"},
      {"measurement": "protection against experimental colitis", "setting": "experimental colitis", "value": "protected"}
    ]}
  ]
}
